Measured values as given in patent publication US9241958B2, “Anticoagulant antagonist and hemophilia procoagulant” (The Board of Trustees of the University of Illinois, priority 2007, dated 2016).

Assays:
fresh whole blood = experiment: Whole blood thromboelastometry (ROTEM), clotting initiated with dilute thromboplastin; assay type: biochemical, human
Description: Thromboelastography was carried out using the ROTEM® four channel system (Pentapharm, Munich, Germany) using the supplied software package. Fresh, non-anticoagulated whole blood was collected via atraumatic venipuncture using a two-syringe technique. The initial 3 ml of blood was discarded and the blood sample to be used was then drawn into a 3 ml plain plastic syringe. The blood was immediately transferred to the supplied disposable plastic cups (280 μL per cup) and thoroughly mixed with 20 μL buffer (TBS: 50 mM Tris-HCl pH 7.4, 150 mM NaCl, 0.02% NaN3) or additives in TBS. Each fresh whole blood sample was divided into 4 cups containing the following: TBS only (control), polyP75, anticoagulant drug only, or both polyP75 and anticoagulant drug. Clotting was then initiated immediately via addition of 20 μL of tissue factor containing clotting reagent (INNOVIN® diluted in TBS). Thromboelastography measurement was initiated within 120 seconds of blood drawing for all samples. The final concentrations in the reaction were 87.5% whole blood, INNOVIN® diluted 1:17,000, 0 or 100 μM polyP, 0 or added anticoagulant drug (0.1 U/mL unfractionated heparin or 2.7 μg/mL enoxaparin or 1 μg/mL argatroban, or 0.2 μg/mL rivaroxaban). The measurements were continued for 2 hours and the clot time (CT), clot formation time (CFT), alpha angle (α angle), and maximum clot firmness (MCF) were recorded as supplied by the ROTEM® software. Each anticoagulant drug was added in vitro to whole blood from 5 different individuals.
(§1) Statistical analyses were performed using SigmaStat statistical software version 2.03 (SPSS, Inc). In all cases, two-tailed t-tests were conducted at the 0.05 level of significance. Clot times obtained using the Dilute PT Test with and without added polyP in plasma-based experiments were compared using unpaired t-tests. Results for each variable obtained from the ROTEM® experiments (CT, CFT, a angle, MCF) were compared separately. For each group of anticoagulants, parameters obtained for control blood samples were compared to those for blood+polyP, blood+anticoagulant, and blood+anticoagulant+polyP. The latter two samples were also directly compared. To account for inter-individual variation, thromboelstography parameters were compared using paired t-tests.

[1] = cited from earlier work
thrombin = thrombin (Homo sapiens, UniProt P00734); experiment: Studies with purified proteins: inactivation of thrombin by antithrombin; assay type: biochemical
pooled normal plasma = experiment: Dilute PT Test, plasma clot time, anticoagulants added in vitro; assay type: biochemical, human
Description: (§2) The following describes the use of the Dilute PT Test to evaluate the effectiveness of polyP in treat hemophilia and reversing the effects of anticoagulant drugs. Anticoagulant drugs were added to pooled normal plasma in vitro at concentrations of up 1 U/mL for unfractionated heparin, 100 μg/mL for enoxaparin, 3 μg/mL for argatroban, and 1 μg/mL for rivaroxaban. Plasma from a patient deficient in FVIII was evaluated with and without the addition of up to 0.5 μg/mL FVIII or 20 nM FVIIa. Plasma from a patient deficient in FIX was evaluated with and without the addition of up to 4 μg/mL FIX or 20 nM FVIIa. INR values for samples from patients receiving COUMADIN® ranged from 1.7 to 4.8.
(§3) Plasma clots were formed in 96-well medium binding polystyrene microplates (Corning Inc., Corning, N.Y.). Plasma (80 μL) was added to the well and clotting was initiated by addition of 160 uL of clotting reagent. The clotting reagent consisted of RecombiPlasTin (as a source of tissue factor) diluted 200 fold (for normal and anticoagulated plasmas) or 8000 fold (for hemophilia plasmas) into buffer containing 100 μM phospholipid vesicles (20% phosphatidylserine and 80% phosphatidylcholine made by sonication), 12.5 mM CaCl2, 25 mM Tris HCl pH 7.4, 0.1% bovine serum albumin, and 150 mM NaCl. Clotting reagent was divided into reagent without added polyP and reagent with added 100 μM polyP75.
(§4) Clotting was evaluated by monitoring the change in turbidity (A405) for 1 hour at room temperature using Softmax software and a Spectramax microplate reader (Molecular Devices Corporation, Sunnyvale, Calif.). […] All assays were repeated 5 times.
as §1

[2] = system: plasma from patients with hemophilia A (FVIII<1%); experiment: Dilute PT Test, plasma clot time, hemophilia A patients; assay type: biochemical, human
Description: as §2, §3, §4, §1

fibrinogen = biological target: T1, fibrinogen (Homo sapiens, UniProt P02671+P02675+P02679); experiment: Clot structure of thrombin cleaved fibrinogen; assay type: biochemical
T1 sequence (P02671 20-644 isoform P02671-2 limits assumed): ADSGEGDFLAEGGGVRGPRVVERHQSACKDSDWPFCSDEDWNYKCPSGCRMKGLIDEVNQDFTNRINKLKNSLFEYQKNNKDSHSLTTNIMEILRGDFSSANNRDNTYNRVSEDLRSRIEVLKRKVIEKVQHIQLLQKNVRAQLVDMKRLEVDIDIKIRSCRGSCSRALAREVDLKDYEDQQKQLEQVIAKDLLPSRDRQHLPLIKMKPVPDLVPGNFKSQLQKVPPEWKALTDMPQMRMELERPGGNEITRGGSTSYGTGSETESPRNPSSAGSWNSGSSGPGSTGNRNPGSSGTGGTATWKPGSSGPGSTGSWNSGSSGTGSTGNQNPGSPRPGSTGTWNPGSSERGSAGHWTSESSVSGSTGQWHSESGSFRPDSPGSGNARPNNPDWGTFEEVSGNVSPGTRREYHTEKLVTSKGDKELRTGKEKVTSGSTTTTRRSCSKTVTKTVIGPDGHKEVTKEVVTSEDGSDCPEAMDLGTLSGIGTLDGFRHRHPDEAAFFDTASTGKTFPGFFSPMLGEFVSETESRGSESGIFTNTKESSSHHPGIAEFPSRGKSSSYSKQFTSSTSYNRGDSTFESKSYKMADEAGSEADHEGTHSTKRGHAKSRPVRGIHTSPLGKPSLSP
T1 sequence (P02675 31-491): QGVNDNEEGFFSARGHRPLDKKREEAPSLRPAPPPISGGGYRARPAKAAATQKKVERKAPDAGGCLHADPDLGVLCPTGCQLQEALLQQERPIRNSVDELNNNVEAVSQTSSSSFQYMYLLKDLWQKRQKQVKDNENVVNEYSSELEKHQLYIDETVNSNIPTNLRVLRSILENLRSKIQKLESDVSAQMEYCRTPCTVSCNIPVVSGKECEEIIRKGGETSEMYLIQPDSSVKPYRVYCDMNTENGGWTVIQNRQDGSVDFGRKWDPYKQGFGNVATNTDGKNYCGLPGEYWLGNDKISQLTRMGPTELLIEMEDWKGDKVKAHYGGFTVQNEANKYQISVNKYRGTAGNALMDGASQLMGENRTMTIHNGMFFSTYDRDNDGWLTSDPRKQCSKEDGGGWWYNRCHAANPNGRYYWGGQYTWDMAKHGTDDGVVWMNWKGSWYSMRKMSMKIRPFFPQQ
T1 sequence (P02679 27-437 isoform P02679-2 limits assumed): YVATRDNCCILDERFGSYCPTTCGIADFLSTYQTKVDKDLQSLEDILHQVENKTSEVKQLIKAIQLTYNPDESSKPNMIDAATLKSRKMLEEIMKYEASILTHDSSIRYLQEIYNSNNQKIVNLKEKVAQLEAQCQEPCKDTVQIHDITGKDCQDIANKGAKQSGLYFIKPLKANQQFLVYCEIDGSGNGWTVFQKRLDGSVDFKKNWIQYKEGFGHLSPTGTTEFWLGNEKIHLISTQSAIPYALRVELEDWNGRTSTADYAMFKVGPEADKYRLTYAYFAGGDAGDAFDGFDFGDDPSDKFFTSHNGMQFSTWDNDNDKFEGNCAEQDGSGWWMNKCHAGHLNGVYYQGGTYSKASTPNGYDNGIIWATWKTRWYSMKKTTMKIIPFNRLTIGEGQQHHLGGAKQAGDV

factor V = factor V (Homo sapiens, UniProt P12259); experiment: Studies with purified proteins: activation of factor V; assay type: biochemical
Sequence of factor V (P12259 29-2224): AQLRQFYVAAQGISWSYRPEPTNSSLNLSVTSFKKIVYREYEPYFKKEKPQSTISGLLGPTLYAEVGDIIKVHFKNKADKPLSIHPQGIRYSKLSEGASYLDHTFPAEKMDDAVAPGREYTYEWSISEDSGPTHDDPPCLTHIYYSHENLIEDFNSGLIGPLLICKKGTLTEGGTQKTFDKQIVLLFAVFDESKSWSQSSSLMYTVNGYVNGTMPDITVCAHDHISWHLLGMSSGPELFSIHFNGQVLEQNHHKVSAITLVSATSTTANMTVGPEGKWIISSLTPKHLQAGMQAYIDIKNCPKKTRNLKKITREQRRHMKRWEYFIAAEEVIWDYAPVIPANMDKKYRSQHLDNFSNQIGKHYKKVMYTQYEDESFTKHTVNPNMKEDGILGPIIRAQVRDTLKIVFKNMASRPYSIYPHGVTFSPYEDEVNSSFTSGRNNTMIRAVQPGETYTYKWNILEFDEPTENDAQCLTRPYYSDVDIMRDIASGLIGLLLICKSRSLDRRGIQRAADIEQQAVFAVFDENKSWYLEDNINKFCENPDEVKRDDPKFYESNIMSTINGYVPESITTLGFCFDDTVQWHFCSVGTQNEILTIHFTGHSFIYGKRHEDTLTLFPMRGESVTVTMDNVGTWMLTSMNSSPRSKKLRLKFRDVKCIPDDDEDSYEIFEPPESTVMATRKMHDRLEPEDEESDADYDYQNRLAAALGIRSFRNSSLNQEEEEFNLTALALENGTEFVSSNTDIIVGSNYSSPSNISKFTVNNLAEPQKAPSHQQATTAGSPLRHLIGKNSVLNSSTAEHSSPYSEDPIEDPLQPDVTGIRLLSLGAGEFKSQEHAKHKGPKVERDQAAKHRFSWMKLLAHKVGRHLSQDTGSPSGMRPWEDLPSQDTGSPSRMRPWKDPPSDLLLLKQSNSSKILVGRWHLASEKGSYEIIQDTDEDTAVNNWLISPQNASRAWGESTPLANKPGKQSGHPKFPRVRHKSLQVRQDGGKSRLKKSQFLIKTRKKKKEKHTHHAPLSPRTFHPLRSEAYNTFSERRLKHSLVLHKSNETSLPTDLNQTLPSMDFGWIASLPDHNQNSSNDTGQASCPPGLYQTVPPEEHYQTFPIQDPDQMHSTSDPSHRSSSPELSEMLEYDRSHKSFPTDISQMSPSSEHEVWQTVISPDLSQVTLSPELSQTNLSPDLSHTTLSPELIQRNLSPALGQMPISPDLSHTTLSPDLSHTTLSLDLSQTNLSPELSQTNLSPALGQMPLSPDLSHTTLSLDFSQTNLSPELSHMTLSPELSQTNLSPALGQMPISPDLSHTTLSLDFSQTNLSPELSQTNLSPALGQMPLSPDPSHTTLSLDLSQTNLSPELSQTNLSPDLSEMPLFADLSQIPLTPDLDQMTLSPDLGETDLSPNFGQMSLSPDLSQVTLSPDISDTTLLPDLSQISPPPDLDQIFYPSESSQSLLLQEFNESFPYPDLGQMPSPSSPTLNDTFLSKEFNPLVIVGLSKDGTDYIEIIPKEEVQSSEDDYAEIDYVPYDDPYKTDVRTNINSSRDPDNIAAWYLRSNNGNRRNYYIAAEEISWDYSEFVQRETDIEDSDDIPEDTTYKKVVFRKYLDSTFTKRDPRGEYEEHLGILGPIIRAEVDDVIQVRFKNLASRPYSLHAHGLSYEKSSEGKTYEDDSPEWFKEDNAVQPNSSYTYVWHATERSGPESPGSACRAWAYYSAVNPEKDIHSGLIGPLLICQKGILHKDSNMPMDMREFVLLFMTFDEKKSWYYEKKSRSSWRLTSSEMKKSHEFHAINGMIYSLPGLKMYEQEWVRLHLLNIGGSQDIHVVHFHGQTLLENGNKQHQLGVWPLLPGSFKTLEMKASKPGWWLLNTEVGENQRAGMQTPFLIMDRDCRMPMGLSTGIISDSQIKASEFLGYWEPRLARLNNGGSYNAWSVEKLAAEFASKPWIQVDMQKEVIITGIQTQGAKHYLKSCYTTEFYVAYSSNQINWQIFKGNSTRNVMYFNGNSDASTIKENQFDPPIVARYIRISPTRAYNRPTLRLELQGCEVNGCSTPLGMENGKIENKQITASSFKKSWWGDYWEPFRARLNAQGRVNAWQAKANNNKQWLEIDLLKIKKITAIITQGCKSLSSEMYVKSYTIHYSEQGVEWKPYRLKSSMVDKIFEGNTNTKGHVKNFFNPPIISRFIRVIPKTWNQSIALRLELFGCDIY

[3] = system: plasma from patients receiving COUMADIN®; experiment: Dilute PT Test, plasma clot time, patients receiving COUMADIN; assay type: biochemical, human; conditions: 7 patients, INR 1.7 to 4.8; polyP75 added in vitro
Description: as §2
Plasma clots were formed in 96-well medium binding polystyrene microplates (Corning Inc., Corning, N.Y.). Plasma (80 μL) was added to the well and clotting was initiated by addition of 160 uL of clotting reagent. […]
Clotting was evaluated by monitoring the change in turbidity (A405) for 1 hour at room temperature using Softmax software and a Spectramax microplate reader (Molecular Devices Corporation, Sunnyvale, Calif.). […]

[4] = system: plasma from patients with hemophilia B (FIX<1%); experiment: Dilute PT Test, plasma clot time, hemophilia B patients; assay type: biochemical, human
Description: as §2, §3, §4, §1

[5] = +Anticoagulant alone (0.1 U/mL unfractionated heparin, 2.7 μg/mL enoxaparin, 1 μg/mL argatroban or 0.2 μg/mL rivaroxaban)
[6] = +100 μM polyP, no anticoagulant, blood samples of the argatroban series
[7] = +100 μM polyP, no anticoagulant, blood samples of the enoxaparin series
[8] = +100 μM polyP, no anticoagulant, blood samples of the rivaroxaban series
[9] = +100 μM polyP, no anticoagulant, blood samples of the unfractionated heparin series
[10] = +Anticoagulant + polyP: 0.2 μg/mL rivaroxaban + 100 μM polyP
[11] = +Anticoagulant + polyP: 1 μg/mL argatroban + 100 μM polyP
[12] = +Anticoagulant + polyP: 2.7 μg/mL enoxaparin + 100 μM polyP
[13] = +Anticoagulant + polyP: 0.1 U/mL unfractionated heparin + 100 μM polyP

CC1CNc2c(cccc2S(=O)(=O)N[C@@H](CCCNC(=N)N)C(=O)N2CC[C@@H](C)C[C@@H]2C(=O)O)C1 (some centres unmarked) [Argatroban, reference compound]
MCF (fresh whole blood; [5]): 49.4 mm | α angle (fresh whole blood; [5]): 38.8 ° | therapeutic plasma concentration ([1]; human, in vivo): about 1 μg/ml

O=C(NC[C@H]1CN(c2ccc(N3CCOCC3=O)cc2)C(=O)O1)c1ccc(Cl)s1 [Rivaroxaban, reference compound]
MCF (fresh whole blood; [5]): 54.8 mm | α angle (fresh whole blood; [5]): 47.6 ° | plasma half-life ([1]; in a patient): 7 to 10 h

Polyphosphate
effect on ability of antithrombin to inactivate thrombin (thrombin): neither enhanced nor blocked | effect on ability of heparin to accelerate inactivation of thrombin by antithrombin (thrombin): did not enhance or block | MCF (fresh whole blood; [6]): 62.2 mm | α angle (fresh whole blood; [6]): 69.0 ° | MCF (fresh whole blood; [7]): 64.8 mm | α angle (fresh whole blood; [7]): 71.0 ° | MCF (fresh whole blood; [8]): 64.0 mm | α angle (fresh whole blood; [8]): 70.0 ° | MCF (fresh whole blood; [9]): 63.0 mm | α angle (fresh whole blood; [9]): 69.6 ° | MCF (fresh whole blood; [10]): 63.6 mm | α angle (fresh whole blood; [10]): 67.4 ° | MCF (fresh whole blood; [11]): 59.4 mm | α angle (fresh whole blood; [11]): 56.4 ° | MCF (fresh whole blood; [12]): 59.8 mm | α angle (fresh whole blood; [12]): 60.4 ° | MCF (fresh whole blood; [13]): 52.4 mm | α angle (fresh whole blood; [13]): 46.8 ° | effect of polyP on CT, in words (fresh whole blood; blood containing argatroban): shortened but did not entirely normalize | effect of polyP on thromboelastography parameters, in words (fresh whole blood; blood containing enoxaparin): normalized all parameters | effect of polyP on thromboelastography curve, in words (fresh whole blood; blood containing rivaroxaban): complete reversal of anticoagulation | effect of polyP on CT, in words (fresh whole blood; blood containing unfractionated heparin): shortened, but did not completely normalize | reversal of the effective dose of heparins (pooled normal plasma; both types of heparin, decreased slope of the dose-response curve, 67 μM polyP75): approximately 50% | shortening of clot time by polyP (pooled normal plasma; plasma with low molecular weight heparin (enoxaparin), all concentrations evaluated (20-100 μg/mL), 67 μM polyP75): approximately 50% | shortening of clot time by polyP (pooled normal plasma; plasma with rivaroxaban, all concentrations tested (0.2-1 μg/mL), 67 μM polyP75): approximately 80% | argatroban level giving equivalent prolongation of clot time (pooled normal plasma; plasma with supratherapeutic argatroban (1-3 μg/ml) + polyP): less than 0.5 μg/ml | shortening of clot time by polyP (pooled normal plasma; plasma with unfractionated heparin, all concentrations evaluated (0.2-1 U/mL), 67 μM polyP75): approximately 50% | effect on anticoagulant effect of drugs added in vitro to normal plasma (pooled normal plasma; unfractionated heparin, enoxaparin, argatroban, rivaroxaban, 67 μM polyP75): antagonized the anticoagulant effect of all four drugs | effect on plasma clot time ([2]; 5 patients with severe hemophilia A, polyP75 added in vitro): decreased the plasma clot time | shortening of plasma clot time compared with factor replacement ([2]; FVIII deficiency, polyP alone vs FVIII restored to normal plasma concentration): greater degree than did restoring the missing clotting factor | procoagulant effect in combination with rFVIIa ([2]; FVIII-deficient plasma, all rFVIIa concentrations evaluated): additive | rFVIIa concentration giving similar shortening of plasma clot time ([2]; FVIII-deficient plasma, polyP alone): ~15 nM | clotting of patient plasma with polyP compared with pooled normal plasma ([2]; severe hemophilia A plasma in the presence of polyP): clotted more rapidly than did pooled normal plasma without polyP | effect on fibrin clot structure (fibrinogen): thicker fibrin fibers that are more resistant to fibrinolysis | effect on activation of factor V by thrombin or factor Xa (factor V): accelerate the activation of factor V | effect on plasma clot time [3]: shortened, but did not completely normalize | effect on plasma clot time ([4]; 4 patients with severe hemophilia B, polyP75 added in vitro): decreased the plasma clot time | shortening of plasma clot time compared with factor replacement ([4]; FIX deficiency, polyP alone vs FIX restored to normal plasma concentration): greater degree than did restoring the missing clotting factor | procoagulant effect in combination with rFVIIa ([4]; FIX-deficient plasma, all rFVIIa concentrations evaluated): additive | rFVIIa concentration giving similar shortening of plasma clot time ([4]; FIX-deficient plasma, polyP alone): ~6 nM | clotting of patient plasma with polyP compared with pooled normal plasma ([4]; severe hemophilia B plasma in the presence of polyP): clotted more rapidly than did pooled normal plasma without polyP
